Experimental data reported in US10280150B2 (FORMA TM2, Inc., priority 2014, dated 2019).
pIC50: −log10 of the molar value. Where two headings read alike, the source gives them in different places.

Assays:
[1] = target: IDH1-R132C recombinant protein (Homo sapiens (Human), UniProt O75874, R132C); experiment: IDH1-R132C enzymatic assay (inhibition of NADPH consumption, diaphorase/resazurin readout); format: biochemical; settings: read-out: Enzyme IDH1 R132C IC50 (Range)
Method: (§1) Assays were performed in a 384-well black plate. An aliquot of 250 nL of compound was incubated with 10 μL of 30 nM IDH1-R132H or 10 nM IDH1-R132C recombinant protein in assay buffer (50 mM Tris pH=7.5, 150 mM NaCl, 5 mM MgCl2, 0.1% (w/v) Bovine Serum Albumin, and 0.01% Triton X-100) in each well at 25° C. for 15 minutes. After the plate was centrifuged briefly, an aliquot of 10 μL of 2 mM α-ketoglutarate and 20 μM NADPH solution prepared in assay buffer was then added to each well and the reaction was maintained at 25° C. for 45 minutes. An aliquot of 10 μL of diaphorase solution (0.15 U/mL diaphorase and 30 µM Resazurin in assay buffer) was added to each well. The plate was maintained at 25° C. for 15 minutes and then read on a plate reader with excitation and emission wavelengths at 535 nm and 590 nm, respectively. The IC50 of a given compound was calculated by fitting the dose response curve of inhibition of NADPH consumption at a given concentration with the four parameter logistic equation.

[2] = tested on: HCT116 isogenic IDH1-R132H mutant cells; experiment: Cellular 2-HG assay using HCT116 mutant IDH1 cells (R132H), RapidFire mass spectrometry; format: cell-based; settings: Homo sapiens, read-out: HCT116 IDH1 R132H IC50 (Range)
Method: (§2) Example 106—Cellular 2-HG assay using HCT116 mutant IDH1 cells
(§3) HCT116 isogenic IDH1-R132H and IDH1-R132C mutant cells were cultured in growth media (McCoy's 5 A, 10% fetal bovine serum, 1× antibiotic-antimycotic solution and 0.3 mg/mL G418) in 5% CO2 in an incubator at 37° C. To prepare the assay, cells were trypsinized and resuspended in assay media (McCoy's 5 A with no L-glutamine, 10% fetal bovine serum, 1× antibiotic-antimycotic solution and 0.3 mg/mL G418). An aliquot of 10,000 cells/100 μL was transferred to each well of a clear 96-well tissue culture plate. The cells were incubated in 5% CO2 at 37° C. in an incubator overnight to allow for proper cell attachment. An aliquot of 50 μL of compound containing assay media were then added to each well and the assay plate was kept in 5% CO2 at 37° C. in an incubator for 24 hours. The media was then removed from each well and 150 μL of a methanol/water mixture (80/20 v/v) was added to each well. The plates were kept at −80° C. freezer overnight to allow for complete cell lysis. An aliquot of 125 μL of extracted supernatant was analyzed by RapidFire high-throughout-mass spectrometry (Agilent) to determine the cellular 2-HG level. The IC50 of a given compound was calculated by fitting the dose response curve of cellular 2-HG inhibition at a given concentration with the four parameter logistic equation.

[3] = target: IDH1-R132H recombinant protein (Homo sapiens (Human), UniProt O75874, R132H); experiment: IDH1-R132H enzymatic assay (inhibition of NADPH consumption, diaphorase/resazurin readout); format: biochemical; settings: read-out: Enzyme IDH1 R132H IC50 (Range)
Sequence of IDH1-R132H recombinant protein (O75874 whole entry R132H): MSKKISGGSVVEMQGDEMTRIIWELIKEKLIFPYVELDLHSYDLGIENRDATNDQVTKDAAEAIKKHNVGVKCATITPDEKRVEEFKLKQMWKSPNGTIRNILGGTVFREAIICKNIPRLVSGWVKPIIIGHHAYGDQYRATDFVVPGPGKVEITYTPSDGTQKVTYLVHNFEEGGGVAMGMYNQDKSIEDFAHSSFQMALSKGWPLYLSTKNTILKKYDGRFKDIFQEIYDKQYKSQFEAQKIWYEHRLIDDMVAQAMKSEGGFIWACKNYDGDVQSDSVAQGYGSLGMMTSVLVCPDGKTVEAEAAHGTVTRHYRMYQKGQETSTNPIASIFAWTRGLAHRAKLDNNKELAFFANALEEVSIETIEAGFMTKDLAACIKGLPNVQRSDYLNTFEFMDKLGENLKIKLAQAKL
Method: as §1

[4] = tested on: HCT116 isogenic IDH1-R132C mutant cells; experiment: Cellular 2-HG assay using HCT116 mutant IDH1 cells (R132C), RapidFire mass spectrometry; format: cell-based; settings: Homo sapiens, read-out: HCT116 IDH1 R132C IC50 (Range)
Method: as §2, §3

[5] = HCT-116, cellular 2-HG level, HCT116 IDH1-R132H cells, 24 hours
[6] = HCT-116, cellular 2-HG level, HCT116 IDH1-R132C cells, 24 hours

Sequence of IDH1-R132C recombinant protein (O75874 whole entry R132C): as the sequence (O75874 whole entry R132H) above, with H132C counted along it

Structure (SMILES)	pIC50 [1]	pIC50 [2, 5]	pIC50 [3]	pIC50 [4, 6]	pIC50 ([2]; HCT-116, 24 h)	pIC50 ([4]; HCT-116, 24 h)
C[C@H](Nc1nccc(N2CCCS2(=O)=O)n1)c1cc2cc(Cl)ccc2[nH]c1=O [Compound I-12, (S)-6-Chloro-3-(1-((4-(1,1-dioxidoisothiazolidin-2-yl)pyrimidin-2-yl)amino)ethyl)quinolin-2(1H)-one]	5.00 to 6.00	6.00 to 7.00	6.00 to 7.00	6.00 to 7.00	–	–
CC(Nc1nccc(N(C(C)C)S(C)(=O)=O)n1)c1cc2cc(Cl)ccc2[nH]c1=O (centres unmarked) [Compound I-20]	6.00 to 7.00	6.00 to 7.00	6.00 to 7.00	6.00 to 7.00	–	–
COC(=O)Nc1ccnc(N[C@@H](C)c2cc3cc(Cl)ccc3[nH]c2=O)n1 [Compound I-22, (S)-Methyl (2-((1-(6-chloro-2-oxo-1,2-dihydroquinolin-3-yl)ethyl)amino)pyrimidin-4-yl) carbamate]	6.00 to 7.00	> 7.00	> 7.00	> 7.00	–	–
C[C@H](Nc1ncc(C#N)c(C2CC2)n1)c1cc2cc(Cl)ccc2[nH]c1=O [Compound I-40, (S)-2-((1-(6-Chloro-2-oxo-1,2-dihydroquinolin-3-yl)ethyl)amino)-4-cyclopropylpyrimidine-5-carbonitrile]	–	5.00 to 6.00	> 7.00	6.00 to 7.00	–	–
CC(C)[C@H]1COC(=O)N1c1ccnc(N[C@@H](C)c2cc3cc(Cl)ccc3[nH]c2=O)n1 [Compound I-42, (S)-3-(2-(((S)-1-(6-Chloro-2-oxo-1,2-dihydroquinolin-3-yl)ethyl)amino)pyrimidin-4-yl)-4-isopropyloxazolidin-2-one]	> 7.00	–	> 7.00	> 7.00	–	–
Cc1c(-c2ccnc(N[C@@H](C)c3cc4cc(Cl)ccc4[nH]c3=O)n2)cnn1C [Compound I-74]	–	6.00 to 7.00	6.00 to 7.00	6.00 to 7.00	–	–
C[C@H](Nc1nccc(-c2ccnn2C2CCCCO2)n1)c1cc2cc(Cl)ccc2[nH]c1=O (some centres unmarked) [Compound I-79]	–	5.00 to 6.00	> 7.00	5.00 to 6.00	–	–
Cc1cscc1-c1ccnc(N[C@@H](C)c2cc3cc(Cl)ccc3[nH]c2=O)n1 [Compound I-80]	–	6.00 to 7.00	> 7.00	6.00 to 7.00	–	–
C[C@H](Nc1nccc(-c2cccn2C)n1)c1cc2cc(Cl)ccc2[nH]c1=O [Compound I-81]	–	6.00 to 7.00	> 7.00	6.00 to 7.00	–	–
COc1cc2[nH]c(=O)c([C@H](C)Nc3nccc(N4CCOC4=O)n3)cc2cc1Cl [Compound I-147]	–	> 7.00	> 7.00	> 7.00	–	–
COc1nc(NC(C)c2cc3cc(Cl)c(OCc4ccccn4)cc3[nH]c2=O)ncc1C#N (centres unmarked) [Compound I-150]	> 7.00	–	> 7.00	–	–	–
Cc1nc(N[C@@H](C)c2cc3cc(Cl)c(OCc4ccccn4)cc3[nH]c2=O)ncc1C#N [Compound I-153]	> 7.00	–	> 7.00	> 7.00	–	–
COc1nc(N[C@@H](C)c2nc3cc(Cl)ccc3[nH]c2=O)ncc1C#N [Compound I-156, (S)-2-((1-(7-Chloro-3-oxo-3,4-dihydroquinoxalin-2-yl)ethyl)amino)-4-methoxy pyrimidine-5-carbonitrile]	6.00 to 7.00	–	–	–	> 7.00	6.00 to 7.00
COc1nc(NC2(c3cc4cc(Cl)ccc4[nH]c3=O)CC2)ncc1C#N [Compound I-169, 2-((1-(6-Chloro-2-oxo-1,2-dihydroquinolin-3-yl)cyclopropyl)amino)-4-methoxypyrimidine-5-carbonitrile]	5.00 to 6.00	–	6.00 to 7.00	–	–	–
COc1nc(N[C@H](C)c2cc3cc(Cl)ccc3[nH]c2=O)ncc1C#N [Compound I-174]	5.00 to 6.00	–	5.00 to 6.00	–	–	–
COc1nc(N[C@@H](C)c2cc3cc(Cl)c(OC(C)C)cc3[nH]c2=O)ncc1C#N [Compound I-175, (S)-2-((1-(6-chloro-7-isopropoxy-2-oxo-1,2-dihydroquinolin-3-yl)ethyl)amino)-4-methoxypyrimidine-5-carbonitrile]	> 7.00	–	> 7.00	–	–	–
COc1nc(N[C@@H](C)c2cc3cc(Cl)c(C4CC4)cc3[nH]c2=O)ncc1C#N [Compound I-176, (S)-2-((1-(6-chloro-7-cyclopropyl-2-oxo-1,2-dihydroquinolin-3-yl)ethyl)amino)-4-methoxypyrimidine-5-carbonitrile]	6.00 to 7.00	–	> 7.00	–	–	–
C[C@H](Nc1ncc(C#N)c(=O)[nH]1)c1cc2cc(Cl)ccc2[nH]c1=O [Compound I-178, (S)-2-((1-(6-chloro-2-oxo-1,2-dihydroquinolin-3-yl)ethyl)amino)-6-oxo-1,6-dihydropyrimidine-5-carbonitrile]	5.00 to 6.00	–	> 7.00	–	–	–

Continued, in another order:

pIC50 [1]	pIC50 [2, 5]	pIC50 [3]	pIC50 [4, 6]	Structure (SMILES)	pIC50 ([2]; HCT-116, 24 h)	pIC50 ([4]; HCT-116, 24 h)
–	6.00 to 7.00	5.00 to 6.00	6.00 to 7.00	CC(C)OC(=O)Nc1ccnc(N[C@@H](C)c2cc3cc(Cl)ccc3[nH]c2=O)n1 [Compound I-23, (S)-Isopropyl (2-((1-(6-chloro-2-oxo-1,2-dihydroquinolin-3-yl)ethyl)amino)pyrimidin-4-yl)carbamate]	–	–
–	6.00 to 7.00	6.00 to 7.00	5.00 to 6.00	C[C@H](Nc1ncc(C#N)c(N)n1)c1cc2cc(Cl)ccc2[nH]c1=O [Compound I-37]	–	–
–	6.00 to 7.00	6.00 to 7.00	6.00 to 7.00	C[C@H](Nc1nccc(N2CCN(C)C2=O)n1)c1cc2cc(Cl)ccc2[nH]c1=O [Compound I-124]	–	–
6.00 to 7.00	–	> 7.00	–	C[C@H](Nc1nccc(N2CCCC2=O)n1)c1cc2cc(Cl)ccc2[nH]c1=O [Compound I-138]	–	–
< 5.00	–	< 5.00	–	COc1nc(N[C@H](C)c2cc3cc(Cl)c(F)cc3[nH]c2=O)ncc1C#N [Compound I-141, (R)-2-((1-(6-chloro-7-fluoro-2-oxo-1,2-dihydroquinolin-3-yl)ethyl)amino)-4-methoxypyrimidine-5-carbonitrile]	–	–
5.00 to 6.00	–	6.00 to 7.00	–	COc1cc2[nH]c(=O)c([C@@H](C)Nc3ncc(C#N)c(OC)n3)cc2cc1Cl [Compound I-144, (R)-2-((1-(6-Chloro-7-methoxy-2-oxo-1,2-dihydroquinolin-3-yl)ethyl)amino)-4-methoxypyrimidine-5-carbonitrile]	–	–
5.00 to 6.00	–	6.00 to 7.00	–	O=C1OCCN1c1ccnc(NC2(c3cc4cc(Cl)ccc4[nH]c3=O)CC2)n1 [Compound I-168]	–	–
–	6.00 to 7.00	6.00 to 7.00	5.00 to 6.00	CC(C)(Nc1nccc(N2CCOC2=O)n1)c1cc2cc(Cl)ccc2[nH]c1=O [Compound I-170]	–	–
6.00 to 7.00	–	> 7.00	–	COc1nc(NC(C)c2cc3cc(Cl)c(OCC4CC(F)(F)C4)cc3[nH]c2=O)ncc1C#N (centres unmarked) [Compound I-172, 2-((1-(6-chloro-7-((3,3-difluorocyclobutyl)methoxy)-2-oxo-1,2-dihydroquinolin-3-yl)ethyl)amino)-4-methoxypyrimidine-5-carbonitrile]	–	–
> 7.00	–	> 7.00	–	CC(C)n1cncc1-c1ccnc(N[C@@H](C)c2cc3cc(Cl)ccc3n(C)c2=O)n1 [Compound I-173, (S)-6-chloro-3-(1-((4-(1-isopropyl-1H-imidazol-5-yl)pyrimidin-2-yl)amino)ethyl)-1-methylquinolin-2(1H)-one]	–	–
< 5.00	–	5.00 to 6.00	–	COc1nc(N[C@@H](C)c2cc3ncccc3[nH]c2=O)ncc1C#N [Compound I-177, (S)—4-methoxy-2-((1-(2-oxo-1,2-dihydro-1,5-naphthyridin-3-yl)ethyl)amino)pyrimidine-5-carbonitrile]	–	–
> 7.00	–	> 7.00	6.00 to 7.00	C[C@H](Nc1nccc(-n2nnnc2C2CC2)n1)c1cc2cc(Cl)ccc2[nH]c1=O [Compound I-183, (S)-6-chloro-3-(1-((4-(5-cyclopropyl-1H-tetrazol-1-yl)pyrimidin-2-yl)amino)ethyl)quinolin-2(1H)-one]	–	–
